The subject of the assay is HCT116. The assay can be described thus: cells. Type of assay: cell-based. The following applies: Homo sapiens, HCT-116; HCT116, 72 h, Alamar Blue, assayed separately; read-out: Cytotoxicity (IC50). As for the experimental part: AlamarBlue Cytotoxicity Assay
MDA-MB-231, MCF-10A and HCT116. Viable cells were counted with a hemocytometer immediately before each experiment . Experiments were done in triplicate. First, 100 μL of MDA-MB-231 cells or MCF-10A cells at the density of 50,000 cells/mL was seeded in a 96-well plate (5,000 cells/well) and then incubated at 37 °C and 5% CO2 for 24 h. The compounds were dissolved in DMSO (dimethyl sulfoxide) to make drug stocks (10 mM). The stock solutions were diluted with the complete DMEM high glucose culture medium to make a series of gradient fresh working solutions right before each test. Subsequently, the cells were treated with 100 μL of the freshly made gradient working solution in a total volume of 200 μL/well for 72 h. After that, the media were discarded and 200 μL of the fresh complete medium containing 10% of AlamarBlue (resazurin) stock solution was added to each well. The plate was then incubated at 37 °C and 5% CO2 for another 3 h. Emission of each well at 620 nm was detected by a microplate reader (BioTek Synergy H1) at excitation 580 nm. For HCT116 WT and mutant lines, cells were seeded at 1000 cells/ well in complete McCoys medium. Compounds were diluted from a DMSO stock into culture medium as described above. Cells were treated for 96 h, then viability measured with AlamarBlue, detected using the conditions described but with a BMG Fluostar Optima Microplate Reader. The percentage of viability compared to the negative control (DMSO-treated cells) was determined. […]
HCT116 and HEK293T. Viable cells were counted using an automated cell counter (BioRad TC20) before each experiment. […] Emission of each well at 620 nm was detected by a microplate reader (Perkin Elmer EnSpire) at excitation 580 nm. The percentage of viability compared to the negative control (DMSO -treated cells) was determined. […]
Figure S1. […] (C) HCT116 colon carcinoma cells were treated with increasing concentrations of analogues 8, 14, 15, CT8, ipomoeassin F or carrier (0.1% DMSO) and cell viability was assessed at 72 h by the Alamar Blue assay (mean ± S.D., n = 4). […]

For the compound `C/C=C(\C)C(=O)O[C@@H]1[C@@H](O)[C@@H]2O[C@H]3[C@H](O[C@@H](CCCCC)CCCCCCC(=O)CCC(=O)OC[C@@H](O2)[C@H]1OC(=O)/C=C/c1ccccc1)O[C@H](C)[C@H](OC(C)=O)[C@@H]3O` [ipomoeassin F], the concentration for half-maximal inhibition (IC50) worked out at 8 nM.

The IC50 is the concentration needed to halve the response being measured.

The values are drawn from PMC6627486, “Ipomoeassin F Binds Sec61α to Inhibit Protein Translocation” (Journal of the American Chemical Society, 2019).
